#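 Compound exposure: 48 hours, 5 concentrations, 96-well plates. Abbreviation: GI50, concentration required for 50% inhibition of growth.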 Active and inactive are the calls of the source. No stated cut-off is given here; in the data, active = GI50 up to about 1.1 µM and inactive = higher.
# Assays:
# Test in all cases: DTP human tumour cell line panel, 48 h
# Malme-3M = system: Malme-3M
# HCT-116 = system: HCT-116
# SF-268 = system: SF-268
# EKVX = system: EKVX
# A498 = system: A498
# NCI/ADR-RES = system: NCI/ADR-RES
# TK-10 = system: TK-10
# ACHN = system: ACHN
# UACC-62 = system: UACC-62
# OVCAR-5 = system: OVCAR-5
# KM12 = system: KM12
# HOP-62 = system: HOP-62
# HT-29 = system: HT-29
# MDA-N = system: MDA-N
# OVCAR-3 = system: OVCAR-3
# HCT-15 = system: HCT-15
# BT-549 = system: BT-549
# MDA-MB-435 = system: MDA-MB-435
# SK-MEL-28 = system: SK-MEL-28
# SN12C = system: SN12C
# RXF 393 = system: RXF 393
# SNB-75 = system: SNB-75
# SF-539 = system: SF-539
# SR = system: SR
# U-251 = system: U-251
# SF-295 = system: SF-295
# MDA-MB-231 = system: MDA-MB-231
# NCI-H23 = system: NCI-H23
# MOLT-4 = system: MOLT-4
# SK-MEL-5 = system: SK-MEL-5
# SK-OV-3 = system: SK-OV-3
# M14 = system: M14
# Hs-578T = system: Hs-578T
# IGROV-1 = system: IGROV-1
# HCC 2998 = system: HCC 2998
# UACC-257 = system: UACC-257
# SW-620 = system: SW-620
# CAKI-1 = system: CAKI-1
# NCI-H226 = system: NCI-H226
# RPMI-8226 = system: RPMI-8226
# T47D = system: T47D
# SNB-19 = system: SNB-19
# 786-0 = system: 786-0
# K562 = system: K562
# NCI-H522 = system: NCI-H522
# DU-145 = system: DU-145
# MCF7 = system: MCF7
# COLO 205 = system: COLO 205
# OVCAR-4 = system: OVCAR-4
# OVCAR-8 = system: OVCAR-8
# A549 = system: A549
# PC-3 = system: PC-3
# CCRF-CEM = system: CCRF-CEM
# NCI-H460 = system: NCI-H460
# LOX IMVI = system: LOX IMVI
# SK-MEL-2 = system: SK-MEL-2
# HL-60 = system: HL-60
# UO-31 = system: UO-31
# HOP-92 = system: HOP-92
structure (smiles),measurement,setting,value
COc1cccc(CCN2CCN(CCCc3ccccc3)CC2)c1,GI50,Malme-3M,55.5 µM (inactive)
same,GI50,HCT-116,53.7 µM (inactive)
same,GI50,SF-268,> 100 µM (inactive)
same,GI50,EKVX,> 100 µM (inactive)
same,GI50,A498,61 µM (inactive)
same,GI50,NCI/ADR-RES,> 100 µM (inactive)
same,GI50,TK-10,> 100 µM (inactive)
same,GI50,ACHN,> 100 µM (inactive)
same,GI50,UACC-62,> 100 µM (inactive)
same,GI50,OVCAR-5,> 100 µM (inactive)
same,GI50,KM12,51.8 µM (inactive)
same,GI50,HOP-62,79.1 µM (inactive)
same,GI50,HT-29,31.8 µM (inactive)
same,GI50,MDA-N,> 100 µM (inactive)
same,GI50,OVCAR-3,64.6 µM (inactive)
same,GI50,HCT-15,31.7 µM
same,GI50,BT-549,40.1 µM (inactive)
same,GI50,MDA-MB-435,85.9 µM (inactive)
same,GI50,SK-MEL-28,> 100 µM (inactive)
same,GI50,SN12C,> 100 µM (inactive)
same,GI50,RXF 393,71 µM (inactive)
same,GI50,SNB-75,63.1 µM (inactive)
same,GI50,SF-539,> 100 µM (inactive)
same,GI50,SR,30.5 µM (inactive)
same,GI50,U-251,> 100 µM (inactive)
same,GI50,SF-295,43 µM (inactive)
same,GI50,MDA-MB-231,> 100 µM (inactive)
same,GI50,NCI-H23,53 µM (inactive)
same,GI50,MOLT-4,92.3 µM (inactive)
same,GI50,SK-MEL-5,19.4 µM (inactive)
same,GI50,SK-OV-3,88.1 µM (inactive)
same,GI50,M14,21.2 µM (inactive)
same,GI50,Hs-578T,> 100 µM (inactive)
same,GI50,IGROV-1,> 100 µM (inactive)
same,GI50,HCC 2998,58.3 µM (inactive)
same,GI50,UACC-257,> 100 µM (inactive)
same,GI50,SW-620,> 100 µM (inactive)
same,GI50,CAKI-1,67.3 µM (inactive)
same,GI50,NCI-H226,71 µM (inactive)
same,GI50,RPMI-8226,32.6 µM (inactive)
same,GI50,T47D,43.6 µM (inactive)
same,GI50,SNB-19,> 100 µM (inactive)
same,GI50,786-0,63.8 µM (inactive)
same,GI50,K562,32.1 µM (inactive)
same,GI50,NCI-H522,22.6 µM (inactive)
same,GI50,DU-145,> 100 µM (inactive)
same,GI50,MCF7,44.1 µM (inactive)
same,GI50,COLO 205,21.1 µM (inactive)
same,GI50,OVCAR-4,51.1 µM (inactive)
same,GI50,OVCAR-8,> 100 µM (inactive)
same,GI50,A549,94.6 µM (inactive)
same,GI50,PC-3,> 100 µM (inactive)
same,GI50,CCRF-CEM,> 100 µM (inactive)
same,GI50,NCI-H460,78 µM (inactive)
same,GI50,LOX IMVI,55.1 µM (inactive)
same,GI50,SK-MEL-2,> 100 µM (inactive)
same,GI50,HL-60,61.4 µM (inactive)
same,GI50,UO-31,51.1 µM (inactive)
same,GI50,HOP-92,8.41 µM (inactive)

# Source: ChEMBL document CHEMBL1201862, “PubChem BioAssay data set” (2004)
